# Measurements from US20230124095A1 (AMORPHICAL LTD., priority 2020, published 2023).
# Assays:
# [1] = test system: Lewis Lung Carcinoma (LLC); assay: Tumor growth in subcutaneous LLC model, ACC with different stabilizers given IP or IV; assay type: in vivo, mice; details: group 2F, per manufacturer
# [2] = test system: Cathepsin S; assay: Cathepsin S activity in Lewis lung carcinoma tumors of treated mice (fluorometric kit); assay type: in vivo; details: 12 days treatment; vs untreated (saline) group
# Method: (§1) The study was performed with C57BL/6 mice at the age of 6-8 weeks. Eight mice were allocated into each study group. Light anesthesia was administered by isoflurane inhalation. LLC cells in a concentration of 2.5×10^5 cells in 100 μl PBS were intradermally injected (subcutaneously) into the right flank of each mice. […] Cisplatin was given according to manufacturer instructions.
# (§2) Ten days following tumor inoculation, when the tumor reached a volume of about >60 mm^3, mice were randomly allocated into the study groups. Various treatments were administered to each group starting Day 10 onwards. The treatment duration lasted for 12 days.
# (§3) Both Cathepsin B and S activities were measured using samples from the same groups according to kit instructions. […] Cathepsin B Activity Assay Kit (Fluorometric) (ab65300) and Cathepsin S Activity Assay Kit (Fluorometric) (ab65303) by Abcam (Cambridge, UK) were used.
# [3] = test system: Cathepsin B; assay: Cathepsin B activity in Lewis lung carcinoma tumors of treated mice (fluorometric kit); assay type: in vivo; details: 12 days treatment; vs untreated (saline) group
# Method: 8 tumors were analyzed per group. For the assay, 20 mg from each extracted tumor were weighed and lysed. Measurements were done using Cathepsin B Activity Assay Kit (Fluorometric) (ab65300) by Abcam (Cambridge, UK). The assays were performed on tumors from the two groups. The lysed samples were treated per Kit instructions, i.e., incubated with Cathepsin B substrate for 1 hour at 37° C. to identify the activity of the lysosomal protein.
# as §1, §2, §3
# [4] = test system: Experimental Autoimmune Encephalomyelitis (EAE) model; assay: Clinical score in MOG-induced EAE multiple sclerosis model in mice; assay type: in vivo
Compound,Mean tumor volume on Day 25 [1] [mm^3],increase in Cathepsin S activity in tumors [2] [%],reduction in Cathepsin B activity in tumors [3] [%],"day on which paralysis signs started ([4]; C57BL mice, n=10 per group) [days]",score of the paralysis signs at plateau ([4]; after days 15 and 16 of treatments),score of the paralysis signs at the end of the study ([4]; study duration 55 days),"paralysis progression at the initial phase ([4]; until day 15, compared to mice given saline or ACC)"
N.N.[Cl][Pt][Cl] [Cisplatin],1342,30,43,,,,
Glatiramer acetate [Copaxone],,,,11,the same paralysis score,higher score,slower paralysis progression
